pIC50: −log10 of the molar value.
Biological target: T1, GCS (Canis lupus familiaris, UniProt A0A8I3MXG6)
T1 construct: endogenous in cells; host or cells: MDCK (Madin-Darby canine kidney) cells, whole-cell lysate
T1 sequence (A0A8I3MXG6 1-394): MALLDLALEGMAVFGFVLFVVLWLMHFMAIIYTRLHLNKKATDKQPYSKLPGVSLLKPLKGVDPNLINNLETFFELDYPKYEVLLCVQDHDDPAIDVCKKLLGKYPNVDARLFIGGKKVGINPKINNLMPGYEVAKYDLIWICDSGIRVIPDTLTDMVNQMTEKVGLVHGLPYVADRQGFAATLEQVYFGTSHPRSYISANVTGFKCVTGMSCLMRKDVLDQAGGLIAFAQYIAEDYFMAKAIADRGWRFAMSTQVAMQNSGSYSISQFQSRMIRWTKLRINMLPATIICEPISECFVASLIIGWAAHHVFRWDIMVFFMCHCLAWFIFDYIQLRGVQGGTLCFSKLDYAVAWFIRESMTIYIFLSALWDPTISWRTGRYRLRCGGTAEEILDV
Assay: GCS enzymatic assay (MDCK cell lysate, NBD-ceramide to glucosylceramide, LC/MS)
Type: biochemical, canine
Conditions: Table 2; class symbols A, B, C; the table does not say which of the assays; read-out: Data Range (IC50 values)
In short: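 IC50 or percent inhibition came from LC/MS/MS (ESI+, MRM) of NBD-ceramide and glucosylceramide, with tolbutamide as internal standard. The reaction used MDCK (canine) cell lysate as the enzyme source and was ended with acetonitrile. Mock wells received 0.1% DMSO.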

SMILES	pIC50
O=C(N[C@H](CN1CCCC1)[C@H](O)c1ccc(OC2CCC2)c(Cl)c1)[C@@H]1CCN(c2ccc(Cl)cc2)C1 [Compound 140, (R)-N-((1R,2R)-1-(3-chloro-4-cyclobutoxyphenyl)-1-hydroxy-3-(pyrrolidin-1-yl)propan-2-yl)-1-(4-chlorophenyl)pyrrolidine-3-carboxamide]	7.52 to 9.00
CC(C)(C)c1ccc(N2CC[C@@H](C(=O)N[C@H](CN3CCCC3)[C@H](O)c3cc(F)c4c(c3)OCCO4)C2)cc1 [Compound 142, (R)-1-(4-(tert-butyl)phenyl)-N-((1R,2R)-1-(8-fluoro-2,3-dihydrobenzo[b][1,4]dioxin-6-yl)-1-hydroxy-3-(pyrrolidin-1-yl)propan-2-yl)pyrrolidine-3-carboxamide]	7.00 to 7.52
O=C(N[C@H](CN1CCCC1)[C@H](O)c1ccc(OC2CC2)c(Cl)c1)[C@@H]1CCN(c2cccc(-c3ccc(F)cc3)n2)C1 [Compound 126, (R)-N-((1R,2R)-1-(3-chloro-4-cyclopropoxyphenyl)-1-hydroxy-3-(pyrrolidin-1-yl)propan-2-yl)-1-(6-(4-fluorophenyl)pyridin-2-yl)pyrrolidine-3-carboxamide]	7.52 to 9.00
O=C(N[C@H](CN1CCCC1)[C@H](O)c1cc(F)c2c(c1)OCCO2)[C@]1(O)CCN(c2ccc(Cl)cc2)C1 [Compound 154, (S)-1-(4-chlorophenyl)-N-((1R,2R)-1-(8-fluoro-2,3-dihydrobenzo[b][1,4]dioxin-6-yl)-1-hydroxy-3-(pyrrolidin-1-yl)propan-2-yl)-3-hydroxypyrrolidine-3-carboxamide]	7.52 to 9.00
O=C(N[C@H](CN1CCCC1)[C@H](O)c1ccc(OC2CC2)c(Cl)c1)[C@@H]1CCN(c2ccc(Cl)c(-c3ccc(F)cc3)n2)C1 [Compound 146, (R)-N-((1R,2R)-1-(3-chloro-4-cyclopropoxyphenyl)-1-hydroxy-3-(pyrrolidin-1-yl)propan-2-yl)-1-(5-chloro-6-(4-fluorophenyl)pyridin-2-yl)pyrrolidine-3-carboxamide]	7.52 to 9.00
O=C(N[C@H](CN1CCCC1)[C@H](O)c1cc(F)c2c(c1)OCCO2)[C@@H]1CCN(c2ccc3c(c2)CCCC3)C1 [Compound 93, (R)-N-((1R,2R)-1-(8-fluoro-2,3-dihydrobenzo[b][1,4]dioxin-6-yl)-1-hydroxy-3-(pyrrolidin-1-yl)propan-2-yl)-1-(5,6,7,8-tetrahydronaphthalen-2-yl)pyrrolidine-3-carboxamide]	7.52 to 9.00
O=C(N[C@H](CN1CCCC1)[C@H](O)c1ccc(OC2CC2)c(F)c1)[C@@H]1CCN(c2ccc(F)cc2)C1 [Compound 69, (R)-N-((1R,2R)-1-(4-cyclopropoxy-3-fluorophenyl)-1-hydroxy-3-(pyrrolidin-1-yl)propan-2-yl)-1-(4-fluorophenyl)pyrrolidine-3-carboxamide]	7.52 to 9.00
O=C(N[C@H](CN1CCCC1)[C@H](O)c1cc(F)c2c(c1)OCCO2)C1CCN(c2ccc(Cl)cc2)C1 (stereo partly drawn) [Compound 2A, 1-(4-chlorophenyl)-N-((1R,2R)-1-(8-fluoro-2,3-dihydrobenzo[b][1,4]dioxin-6-yl)-1-hydroxy-3-(pyrrolidin-1-yl)propan-2-yl)pyrrolidine-3-carboxamide]	7.52 to 9.00
O=C(N[C@H](CN1CCC1)[C@H](O)c1cc(F)c2c(c1)OCCO2)[C@@H]1CCN(c2ccc3cc(Cl)ccc3c2)C1 [Compound 89, (R)-N-((1R,2R)-3-(azetidin-1-yl)-1-(8-fluoro-2,3-dihydrobenzo[b][1,4]dioxin-6-yl)-1-hydroxypropan-2-yl)-1-(6-chloronaphthalen-2-yl)pyrrolidine-3-carboxamide]	7.52 to 9.00

Same assay, conditions: Table 2; class symbols D, E, F, NA (not active); the table does not say which of the assays

SMILES	Data Range (% inhibition)
O=C(N[C@H](CN1CCCC1)[C@H](O)c1ccc(N2CCOCC2)c(Cl)c1)[C@@H]1CCN(c2ccc(Cl)cc2)C1 [Compound 74, (R)-N-((1R,2R)-1-(3-chloro-4-morpholinophenyl)-1-hydroxy-3-(pyrrolidin-1-yl)propan-2-yl)-1-(4-chlorophenyl)pyrrolidine-3-carboxamide]	D (75-100%)
CC(C)Oc1ccc([C@@H](O)[C@@H](CN2CCCC2)NC(=O)[C@H]2CCN(c3ccc(Cl)cc3)C2)cc1Cl [Compound 23B, (S)-N-((1R,2R)-1-(3-chloro-4-isopropoxyphenyl)-1-hydroxy-3-(pyrrolidin-1-yl)propan-2-yl)-1-(4-chlorophenyl)pyrrolidine-3-carboxamide]	F (1-49% (or less than 50%))
O=C(N[C@H](CN1CCCC1)[C@H](O)c1ccc2c(c1)OCCO2)C1CCN(c2ccnc(OC3CC3)c2)C1 (stereo partly drawn) [Compound 56D, 1-(2-cyclopropoxypyridin-4-yl)-N-((1R,2R)-1-(2,3-dihydrobenzo[b][1,4]dioxin-6-yl)-1-hydroxy-3-(pyrrolidin-1-yl)propan-2-yl)pyrrolidine-3-carboxamide]	F (1-49% (or less than 50%))
O=C(N[C@H](CN1CCCC1)[C@H](O)c1ccc2c(c1)OCCO2)[C@H]1CCN(c2ccc(F)cc2)C1 [Compound 24C, (S)-N-((1R,2R)-1-(2,3-dihydrobenzo[b][1,4]dioxin-6-yl)-1-hydroxy-3-(pyrrolidin-1-yl)propan-2-yl)-1-(4-fluorophenyl)pyrrolidine-3-carboxamide]	NA (not active—a negative value was generated for % inhibition)
O=C(N[C@H](CN1CCCC1)[C@H](O)c1cc(F)c2c(c1)OCCO2)[C@H]1CCN(c2ccc3cc(F)ccc3c2)C1 [Compound 52A, (S)-N-((1R,2R)-1-(8-fluoro-2,3-dihydrobenzo[b][1,4]dioxin-6-yl)-1-hydroxy-3-(pyrrolidin-1-yl)propan-2-yl)-1-(6-fluoronaphthalen-2-yl)pyrrolidine-3-carboxamide]	E (50-74% (or less than 75%))
CC1(C)CCc2ccc(N3CCC(C(=O)N[C@H](CN4CCCC4)[C@H](O)c4ccc5c(c4)OCCO5)C3)cc2O1 (stereo partly drawn) [Compound 71E, N-((1R,2R)-1-(2,3-dihydrobenzo[b][1,4]dioxin-6-yl)-1-hydroxy-3-(pyrrolidin-1-yl)propan-2-yl)-1-(2,2-dimethylchroman-7-yl)pyrrolidine-3-carboxamide]	E (50-74% (or less than 75%))
CN1CCC(Oc2ccc([C@@H](O)[C@@H](CN3CCCC3)NC(=O)[C@H]3CCN(c4ccc(Cl)cc4)C3)cc2Cl)CC1 [Compound 49A, (S)-N-((1R,2R)-1-(3-chloro-4-((1-methylpiperidin-4-yl)oxy)phenyl)-1-hydroxy-3-(pyrrolidin-1-yl)propan-2-yl)-1-(4-chlorophenyl)pyrrolidine-3-carboxamide]	F (1-49% (or less than 50%))
O=C(N[C@H](CN1CCCC1)[C@H](O)c1ccc2c(c1)OCCO2)C1CCN(c2ccccn2)C1 (stereo partly drawn) [Compound 22C, N-((1R,2R)-1-(2,3-dihydrobenzo[b][1,4]dioxin-6-yl)-1-hydroxy-3-(pyrrolidin-1-yl)propan-2-yl)-1-(pyridin-2-yl)pyrrolidine-3-carboxamide]	F (1-49% (or less than 50%))
CC1(C)CCc2cc([C@@H](O)[C@@H](CN3CCCC3)NC(=O)[C@@H]3CCN(c4ccc(Cl)cc4)C3)ccc2O1 [Compound 51, (R)-1-(4-chlorophenyl)-N-((1R,2R)-1-(2,2-dimethylchroman-6-yl)-1-hydroxy-3-(pyrrolidin-1-yl)propan-2-yl)pyrrolidine-3-carboxamide]	F (1-49% (or less than 50%))
